Key:
Format in all cases: functional, organism-based
Pseudomonas aeruginosa [1] = test: Antimicrobial activity against Pseudomonas aeruginosa ATCC 27853 by Etest method
Pseudomonas aeruginosa [2] = test: Antimicrobial activity against Pseudomonas aeruginosa PAO1 by Etest method
Pseudomonas aeruginosa [3] = test: Antimicrobial activity against mutS-deficient Pseudomonas aeruginosa PAO1 by Etest method
Pseudomonas aeruginosa [4] = test: Antimicrobial activity against non-hypermutable Pseudomonas aeruginosa isolated from patients with chronic respiratory infection by Etest method
Pseudomonas aeruginosa [5] = test: Antimicrobial activity against hypermutable Pseudomonas aeruginosa isolated from patients with chronic respiratory infection by Etest method
Pseudomonas aeruginosa [6] = test: Antimicrobial activity against non-hypermutable Pseudomonas aeruginosa isolated from intensive care unit patients with chronic respiratory infection by Etest method

MIC (Pseudomonas aeruginosa [1]): 1 µg/mL
MIC (Pseudomonas aeruginosa [2]): 2 µg/mL
MIC (Pseudomonas aeruginosa [3]): 2 µg/mL
MIC (Pseudomonas aeruginosa [4]): 0.92 µg/mL
MIC (Pseudomonas aeruginosa [5]): 0.48 µg/mL
MIC (Pseudomonas aeruginosa [6]): 2 µg/mL
Sequence: COLISTIN

— ChEMBL document CHEMBL1151432, “Increased susceptibility to colistin in hypermutable Pseudomonas aeruginosa strains from chronic respiratory infections” (Antimicrob Agents Chemother, 2007)
